Experimental data published in BindingDB's records for doi:10.1016/j.bioorg.2015.02.008 (University of Strasburg, 2015).

molecular target: T1, 1-deoxy-D-xylulose 5-phosphate reductoisomerase (Escherichia coli (strain K12), UniProt P45568); test: DXR Inhibition Assay
T1 sequence (P45568 whole entry): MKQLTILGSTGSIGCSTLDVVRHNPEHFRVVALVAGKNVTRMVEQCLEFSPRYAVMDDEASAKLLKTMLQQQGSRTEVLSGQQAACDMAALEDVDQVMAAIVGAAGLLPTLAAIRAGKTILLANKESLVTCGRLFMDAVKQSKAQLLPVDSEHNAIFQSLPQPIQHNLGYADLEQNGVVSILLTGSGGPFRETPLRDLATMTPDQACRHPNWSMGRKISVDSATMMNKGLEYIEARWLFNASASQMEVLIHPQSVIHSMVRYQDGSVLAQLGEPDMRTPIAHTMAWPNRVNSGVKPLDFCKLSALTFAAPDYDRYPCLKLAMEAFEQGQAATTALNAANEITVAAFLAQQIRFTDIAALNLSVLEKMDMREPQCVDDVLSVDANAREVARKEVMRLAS
Procedure: H-DXR was pre-incubated during 2 min in the presence of the inhibitors at different concentrations and DXP (480 µM). NADPH (160 µM final concentration) was then added to measure the residual activity. The flavonoids are poorly soluble in water. Flavonoids solutions at different concentrations were prepared in DMSO by serial dilutions from 100 mM stock solutions. […] The inhibition mechanism of myricetin was studied by preincubating H-DXR with DXP at varied concentrations (96 480 µM) and fixed concentrations of myricetin (0.5, 1 and 2 µM). The enzymatic reaction was initiated by NADPH (final concentration160 µM). Fosmidomycin was used as a positive reference.

Question: How did the IC50 turn out when `O=c1c(O)c(-c2cc(O)c(O)c(O)c2)oc2cc(O)cc(O)c12` was run?
Answer: 1500 nM

Question: How did the IC50 turn out when `O=c1cc(-c2ccccc2)oc2cc(O)c(O)c(O)c12` was run?
Answer: 2200 nM

Question: Which IC50 does the source give for `O=c1c(O)c(-c2ccc(O)c(O)c2)oc2cc(O)cc(O)c12` [2-(3,4-dihydroxyphenyl)-3,5,7-trihydroxy-chromone;hydrate] here?
Answer: 1900 nM

Question: Which IC50 does the source give for `O=c1c(O)c(-c2ccc(O)c(O)c2)oc2cc(O)ccc12` [2-(3,4-dihydroxyphenyl)-3,7-dihydroxy-chromen-4-one] here?
Answer: 3500 nM

Question: `O=c1cc(-c2ccc(O)c(O)c2)oc2cc(O)cc(O)c12` [2-(3,4-dihydroxyphenyl)-5,7-dihydroxy-4H-chromen-4-one] was tested. Which IC50 did it give?
Answer: 3400 nM
